# According to patent US9833497B2, “Human originated EGF domain proteins and use of the same” (CHENGDU SOURCEBIO LIMITED-LIABILITY COMPANY, priority 2013, dated 2017):
# Key:
# Format in all cases: cell-based
# Proteus vulgaris = assay: MIC against Gram-negative bacteria: Proteus vulgaris; conditions: for MIC (μg/mL) P. vulgaris / MIC against P. vulgaris: 5×10^5 CFU/mL
# Method in brief: (§1)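 Read-out is absence of bacterial growth, with MIC set at the lowest recombinant protein concentration achieving it. Bacteria, pre-grown in LB to McFarland 0.5 and resuspended, were exposed at 5×10^5 CFU/mL to two-fold diluted human EGF domain proteins in triplicate at 37° C, 175 rpm.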
# Pseudomonas aeruginosa = assay: MIC against Gram-negative bacteria: Pseudomonas aeruginosa; conditions: for MIC (μg/mL) P. aeruginosa / MIC against P. aeruginosa: 5×10^5 CFU/mL
# Method in brief: as §1
# Klebsiella pneumonia = assay: MIC against Gram-negative bacteria: Klebsiella pneumonia; conditions: for MIC (μg/mL) K. pneumonia / MIC against K. pneumonia: 5×10^5 CFU/mL
# Method in brief: as §1
# Aeromonas hydrophila = assay: MIC against Gram-negative bacteria: Aeromonas hydrophila; conditions: for MIC (μg/mL) A. hydrophila / MIC against A. hydrophila: 5×10^5 CFU/mL
# Method in brief: as §1
# E. coli DH5α = assay: Antibacterial activity: MIC and growth curve against E. coli DH5α in 96-well plate; conditions: minimal inhibitory concentration against E. coli DH5α; 96-well plate, 5×10^5 CFU/mL, 37° C., judged after 8 h
# Method in brief: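 Log-phase DH5α (OD600 about 0.5, 37° C, 185 rpm in LB) was pelleted, resuspended in fresh LB and seeded at 5×10^5 CFU/mL with recombinant protein at 50, 25 and 12.5 μg/mL (two-fold series), in triplicate. Plates were shaken at 175 rpm, 37° C, and OD600 was read every 30 min. MIC was the lowest concentration with no growth.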
# Enterobacter cloacae = assay: MIC against Gram-negative bacteria: Enterobacter cloacae; conditions: for MIC (μg/mL) E. cloacae / MIC against E. cloacae: 5×10^5 CFU/mL
# Method in brief: as §1
# Serratia marcescens = assay: MIC against Gram-negative bacteria: Serratia marcescens; conditions: for MIC (μg/mL) S. marcescens / MIC against S. marcescens: 5×10^5 CFU/mL
# Method in brief: as §1
# Moraxella catarrhalis = assay: MIC against Gram-negative bacteria: Moraxella catarrhalis; conditions: for MIC (μg/mL) M. catarrhalis / MIC against M. catarrhalis: 5×10^5 CFU/mL
# Method in brief: as §1
# Citrobacter diversus = assay: MIC against Gram-negative bacteria: Citrobacter diversus; conditions: for MIC (μg/mL) C. diversus / MIC against C. diversus: 5×10^5 CFU/mL
# Method in brief: as §1
# E. coli BL21 = assay: MIC against Gram-negative bacteria: E. coli BL21; conditions: E. coli BL21; for MIC (μg/mL) E. coli BL21 / MIC against E. coli BL21: 5×10^5 CFU/mL
# Method in brief: as §1
# Proteus mirabilis = assay: MIC against Gram-negative bacteria: Proteus mirabilis; conditions: for MIC (μg/mL) P. mirabilis / MIC against P. mirabilis: 5×10^5 CFU/mL
# Method in brief: as §1
# [1] = P. vulgaris, 10 h cultivation at 37° C.
# [2] = P. aeruginosa, 10 h cultivation at 37° C.
# [3] = K. pneumonia, 10 h cultivation at 37° C.
# [4] = A. hydrophila, 10 h cultivation at 37° C.
# [5] = E. cloacae, 10 h cultivation at 37° C.
# [6] = S. marcescens, 10 h cultivation at 37° C.
# [7] = M. catarrhalis, 10 h cultivation at 37° C.
# [8] = C. diversus, 10 h cultivation at 37° C.
# [9] = P. mirabilis, 10 h cultivation at 37° C.
# [10] = Proteus vulgaris, 96-well plate, 37° C., 10 h
# [11] = Pseudomonas aeruginosa, 96-well plate, 37° C., 10 h
# [12] = Klebsiella pneumonia, 96-well plate, 37° C., 10 h
# [13] = Aeromonas hydrophila, 96-well plate, 37° C., 10 h
# [14] = Enterobacter cloacae, 96-well plate, 37° C., 10 h
# [15] = Serratia marcescens, 96-well plate, 37° C., 10 h
# [16] = Moraxella catarrhalis, 96-well plate, 37° C., 10 h
# [17] = Citrobacter diversus, 96-well plate, 37° C., 10 h
# [18] = Proteus mirabilis, 96-well plate, 37° C., 10 h
substance,measurement,setting,value
PRT849 (CPCSAVTSTGSCSIKSSELEPECDQCKDGYIGPNCNKCENGYYNFDSICRK; listed as Homo sapiens),MIC (μg/mL) P. vulgaris,Proteus vulgaris; [1],12.5 µg/mL
same,MIC (μg/mL) P. aeruginosa,Pseudomonas aeruginosa; [2],12.5 µg/mL
same,MIC (μg/mL) K. pneumonia,Klebsiella pneumonia; [3],12.5 µg/mL
same,MIC (μg/mL) A. hydrophila,Aeromonas hydrophila; [4],25 µg/mL
same,MIC,E. coli DH5α,12.5 µg/mL
same,MIC (μg/mL) E. cloacae,Enterobacter cloacae; [5],12.5 µg/mL
same,MIC (μg/mL) S. marcescens,Serratia marcescens; [6],25 µg/mL
same,MIC (μg/mL) M. catarrhalis,Moraxella catarrhalis; [7],25 µg/mL
same,MIC (μg/mL) C. diversus,Citrobacter diversus; [8],12.5 µg/mL
same,MIC (μg/mL) E. coli BL21,E. coli BL21; 10 h cultivation at 37° C.,12.5 µg/mL
same,MIC (μg/mL) P. mirabilis,Proteus mirabilis; [9],12.5 µg/mL
PRT1301 (DNDDCVAHKCRHGAQCVDTINGYTCTCPQGFSGPFCE; listed as Homo sapiens),MIC against P. vulgaris,Proteus vulgaris; [10],25 µg/mL
same,MIC against P. aeruginosa,Pseudomonas aeruginosa; [11],12.5 µg/mL
same,MIC against K. pneumonia,Klebsiella pneumonia; [12],12.5 µg/mL
same,MIC against A. hydrophila,Aeromonas hydrophila; [13],25 µg/mL
same,MIC,E. coli DH5α,12.5 µg/mL
same,MIC against E. cloacae,Enterobacter cloacae; [14],50 µg/mL
same,MIC against S. marcescens,Serratia marcescens; [15],50 µg/mL
same,MIC against M. catarrhalis,Moraxella catarrhalis; [16],50 µg/mL
same,MIC against C. diversus,Citrobacter diversus; [17],12.5 µg/mL
same,MIC against E. coli BL21,"E. coli BL21; 96-well plate, 37° C., 10 h",12.5 µg/mL
same,MIC against P. mirabilis,Proteus mirabilis; [18],12.5 µg/mL
PRT1373 (STRSCPGGCRGRGQCLDGRCVCEDGYSGEDC; listed as Homo sapiens),MIC against P. vulgaris,"Proteus vulgaris; Proteus vulgaris, 10 h cultivation at 37° C.",50 µg/mL
same,MIC against P. aeruginosa,"Pseudomonas aeruginosa; Pseudomonas aeruginosa, 10 h cultivation at 37° C.",12.5 µg/mL
same,MIC against K. pneumonia,"Klebsiella pneumonia; Klebsiella pneumonia, 10 h cultivation at 37° C.",12.5 µg/mL
same,MIC against A. hydrophila,"Aeromonas hydrophila; Aeromonas hydrophila, 10 h cultivation at 37° C.",12.5 µg/mL
same,MIC,E. coli DH5α,25 µg/mL
same,MIC against E. cloacae,"Enterobacter cloacae; Enterobacter cloacae, 10 h cultivation at 37° C.",12.5 µg/mL
same,MIC against S. marcescens,"Serratia marcescens; Serratia marcescens, 10 h cultivation at 37° C.",12.5 µg/mL
same,MIC against M. catarrhalis,"Moraxella catarrhalis; Moraxella catarrhalis, 10 h cultivation at 37° C.",12.5 µg/mL
same,MIC against C. diversus,"Citrobacter diversus; Citrobacter diversus, 10 h cultivation at 37° C.",50 µg/mL
same,MIC against E. coli BL21,E. coli BL21; 10 h cultivation at 37° C.,12.5 µg/mL
same,MIC against P. mirabilis,"Proteus mirabilis; Proteus mirabilis, 10 h cultivation at 37° C.",25 µg/mL
PRT1031 (MCVTYHNGTGYCKCPEGFLGEYCQ; listed as Homo sapiens),MIC,Proteus vulgaris; [1],50 µg/mL
same,MIC,Pseudomonas aeruginosa; [2],12.5 µg/mL
same,MIC,Klebsiella pneumonia; [3],50 µg/mL
same,MIC,Aeromonas hydrophila; [4],50 µg/mL
same,MIC,E. coli DH5α,12.5 µg/mL
same,MIC,Enterobacter cloacae; [5],12.5 µg/mL
same,MIC,Serratia marcescens; [6],12.5 µg/mL
same,MIC,Moraxella catarrhalis; [7],12.5 µg/mL
same,MIC,Citrobacter diversus; [8],25 µg/mL
same,MIC,E. coli BL21; 10 h cultivation at 37° C.,50 µg/mL
same,MIC,Proteus mirabilis; [9],12.5 µg/mL
PRT933 (HRDPCEKNRCQNGGTCVAQAMLGKATCRCASGFTGEDCQ; listed as Homo sapiens),MIC,Proteus vulgaris; [1],12.5 µg/mL
same,MIC,Pseudomonas aeruginosa; [2],12.5 µg/mL
same,MIC,Klebsiella pneumonia; [3],50 µg/mL
same,MIC,Aeromonas hydrophila; [4],12.5 µg/mL
same,MIC,E. coli DH5α,12.5 µg/mL
same,MIC,Enterobacter cloacae; [5],25 µg/mL
same,MIC,Serratia marcescens; [6],50 µg/mL
same,MIC,Moraxella catarrhalis; [7],50 µg/mL
same,MIC,Citrobacter diversus; [8],25 µg/mL
same,MIC,E. coli BL21; 10 h cultivation at 37° C.,25 µg/mL
same,MIC,Proteus mirabilis; [9],25 µg/mL
PRT75 (DDNICLREPCENYMRCVSVLRFDSSAPFIASSSVLFRPIHPVGGLRCRCPPGFTGDYCE; listed as Homo sapiens),MIC (μg/mL) P. vulgaris,Proteus vulgaris; [10],12.5 µg/mL
same,MIC (μg/mL) P. aeruginosa,Pseudomonas aeruginosa; [11],12.5 µg/mL
same,MIC (μg/mL) K. pneumonia,Klebsiella pneumonia; [12],25 µg/mL
same,MIC (μg/mL) A. hydrophila,Aeromonas hydrophila; [13],12.5 µg/mL
same,MIC,E. coli DH5α,50 µg/mL
same,MIC (μg/mL) E. cloacae,Enterobacter cloacae; [14],50 µg/mL
same,MIC (μg/mL) S. marcescens,Serratia marcescens; [15],12.5 µg/mL
same,MIC (μg/mL) M. catarrhalis,Moraxella catarrhalis; [16],12.5 µg/mL
same,MIC (μg/mL) C. diversus,Citrobacter diversus; [17],12.5 µg/mL
same,MIC (μg/mL) E. coli BL21,"E. coli BL21; 96-well plate, 37° C., 10 h",25 µg/mL
same,MIC (μg/mL) P. mirabilis,Proteus mirabilis; [18],12.5 µg/mL
PRT913 (VINGCKGKPCKNGGTCAVASNTARGFICKCPAGFEGATCE; listed as Homo sapiens),MIC,Proteus vulgaris; [1],12.5 µg/mL
same,MIC,Pseudomonas aeruginosa; [2],50 µg/mL
same,MIC,Klebsiella pneumonia; [3],25 µg/mL
same,MIC,Aeromonas hydrophila; [4],25 µg/mL
same,MIC,E. coli DH5α,12.5 µg/mL
same,MIC,Enterobacter cloacae; [5],12.5 µg/mL
same,MIC,Serratia marcescens; [6],50 µg/mL
same,MIC,Moraxella catarrhalis; [7],50 µg/mL
same,MIC,Citrobacter diversus; [8],25 µg/mL
same,MIC,E. coli BL21; 10 h cultivation at 37° C.,25 µg/mL
same,MIC,Proteus mirabilis; [9],25 µg/mL
